Data published in ChEMBL document CHEMBL5303769, “Data for DCP probe JNJ-42226314” (2023).

Assays:
D(1B) dopamine receptor [1] = molecular target: T1, D(1B) dopamine receptor (Homo sapiens, UniProt P21918); test: GPCRScan assay: inhibition of D5; design: radioligand conc. used [nm] 2.0 – 3.0, parental cells HEKT
[2] = molecular target: 5-hydroxytryptamine receptor 1A (Homo sapiens) (UniProt P08908); settings: Compound concentration 10.0 uM
[3] = molecular target: 5-hydroxytryptamine receptor 1B (Homo sapiens) (UniProt P28222); settings: Compound concentration 10.0 uM
[4] = molecular target: 5-hydroxytryptamine receptor 1D (Homo sapiens) (UniProt P28221); settings: Compound concentration 10.0 uM
[5] = molecular target: 5-hydroxytryptamine receptor 2A (Homo sapiens) (UniProt P28223); settings: Compound concentration 10.0 uM
[6] = molecular target: 5-hydroxytryptamine receptor 2B (Homo sapiens) (UniProt P41595); settings: Compound concentration 10.0 uM
[7] = molecular target: 5-hydroxytryptamine receptor 2C (Homo sapiens) (UniProt P28335); settings: Compound concentration 10.0 uM
[8] = molecular target: 5-hydroxytryptamine receptor 3A (Homo sapiens) (UniProt P46098); settings: Compound concentration 10.0 uM
[9] = molecular target: 5-hydroxytryptamine receptor 5A (Homo sapiens) (UniProt P47898); settings: Compound concentration 10.0 uM
[10] = molecular target: 5-hydroxytryptamine receptor 6 (Homo sapiens) (UniProt P50406); settings: Compound concentration 10.0 uM
[11] = molecular target: 5-hydroxytryptamine receptor 7 (Homo sapiens) (UniProt P34969); settings: Compound concentration 10.0 uM
[12] = molecular target: D(2) dopamine receptor (Homo sapiens) (UniProt P14416); settings: Compound concentration 10.0 uM
[13] = molecular target: D(3) dopamine receptor (Homo sapiens) (UniProt P35462); settings: Compound concentration 10.0 uM
[14] = molecular target: D(4) dopamine receptor (Homo sapiens) (UniProt P21917); settings: Compound concentration 10.0 uM
[15] = molecular target: Sodium-dependent serotonin transporter (Homo sapiens) (UniProt P31645); settings: Compound concentration 10.0 uM
[16] = molecular target: Sodium-dependent noradrenaline transporter (Homo sapiens) (UniProt P23975); settings: Compound concentration 10.0 uM
[17] = molecular target: Sodium-dependent dopamine transporter (Homo sapiens) (UniProt Q01959); settings: Compound concentration 10.0 uM
[18] = molecular target: Mu-type opioid receptor (Homo sapiens) (UniProt P35372); settings: Compound concentration 10.0 uM
[19] = molecular target: Delta-type opioid receptor (Homo sapiens) (UniProt P41143); settings: Compound concentration 10.0 uM
[20] = molecular target: Kappa-type opioid receptor (Homo sapiens) (UniProt P41145); settings: Compound concentration 10.0 uM
[21] = molecular target: Histamine H1 receptor (Homo sapiens) (UniProt P35367); settings: Compound concentration 10.0 uM
[22] = molecular target: Histamine H2 receptor (Homo sapiens) (UniProt P25021); settings: Compound concentration 10.0 uM
[23] = molecular target: Histamine H3 receptor (Homo sapiens) (UniProt Q9Y5N1); settings: Compound concentration 10.0 uM
[24] = molecular target: Histamine H4 receptor (Homo sapiens) (UniProt Q9H3N8); settings: Compound concentration 10.0 uM
[25] = molecular target: Alpha-1A adrenergic receptor (Homo sapiens) (UniProt P35348); settings: Compound concentration 10.0 uM
[26] = molecular target: Alpha-1B adrenergic receptor (Homo sapiens) (UniProt P35368); settings: Compound concentration 10.0 uM
[27] = molecular target: Alpha-2A adrenergic receptor (Homo sapiens) (UniProt P08913); settings: Compound concentration 10.0 uM
[28] = molecular target: Alpha-2B adrenergic receptor (Homo sapiens) (UniProt P18089); settings: Compound concentration 10.0 uM
[29] = molecular target: Alpha-2C adrenergic receptor (Homo sapiens) (UniProt P18825); settings: Compound concentration 10.0 uM
[30] = molecular target: Beta-1 adrenergic receptor (Homo sapiens) (UniProt P08588); settings: Compound concentration 10.0 uM
[31] = molecular target: Beta-2 adrenergic receptor (Homo sapiens) (UniProt P07550); settings: Compound concentration 10.0 uM
[32] = molecular target: Muscarinic acetylcholine receptor M2 (Homo sapiens) (UniProt P08172); settings: Compound concentration 10.0 uM
[33] = molecular target: T2, Muscarinic acetylcholine receptor M3 (Homo sapiens, UniProt P20309); settings: Compound concentration 10.0 uM
Target sequence in this assay (P20309 whole entry, looked up): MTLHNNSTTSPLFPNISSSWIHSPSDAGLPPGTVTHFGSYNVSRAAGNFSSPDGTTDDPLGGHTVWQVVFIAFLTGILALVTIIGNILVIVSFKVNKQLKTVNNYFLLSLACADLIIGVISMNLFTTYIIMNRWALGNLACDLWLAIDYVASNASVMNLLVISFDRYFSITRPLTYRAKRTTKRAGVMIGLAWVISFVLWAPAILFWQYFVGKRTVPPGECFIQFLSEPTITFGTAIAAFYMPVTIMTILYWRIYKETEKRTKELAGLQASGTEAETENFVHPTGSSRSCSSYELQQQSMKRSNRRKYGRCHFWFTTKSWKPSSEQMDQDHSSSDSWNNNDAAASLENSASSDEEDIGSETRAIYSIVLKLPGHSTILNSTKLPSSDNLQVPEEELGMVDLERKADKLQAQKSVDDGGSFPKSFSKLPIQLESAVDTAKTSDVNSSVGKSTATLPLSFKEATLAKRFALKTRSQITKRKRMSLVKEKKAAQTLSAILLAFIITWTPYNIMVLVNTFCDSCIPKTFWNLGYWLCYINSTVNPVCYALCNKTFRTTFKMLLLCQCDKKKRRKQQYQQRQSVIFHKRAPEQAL

[34] = molecular target: Muscarinic acetylcholine receptor M5 (Homo sapiens) (UniProt P08912); settings: Compound concentration 10.0 uM
[35] = molecular target: Beta-3 adrenergic receptor (Homo sapiens) (UniProt P13945); settings: Compound concentration 10.0 uM
[36] = molecular target: GABA-A receptor; anion channel (Rattus norvegicus) (UniProt O09028+P15431+P18506+P18508+P19969+P20236+P23574+P23576+P28471+P28473+P30191+P62813+P63079+P63138+Q91ZM7+Q9ES14); settings: Compound concentration 10.0 uM
Rattus norvegicus = species: Rattus norvegicus; settings: Compound concentration 10.0 uM
[37] = molecular target: Alpha-1D adrenergic receptor (Homo sapiens) (UniProt P25100); settings: Compound concentration 10.0 uM
[38] = molecular target: Sigma intracellular receptor 2 (Homo sapiens) (UniProt Q5BJF2); settings: Compound concentration 10.0 uM
[39] = molecular target: Sigma non-opioid intracellular receptor 1 (Homo sapiens) (UniProt Q99720); settings: Compound concentration 10.0 uM
[40] = molecular target: Monoacylglycerol lipase (Homo sapiens); test: Fluorometric Assay (Inhibition of 4MU-B cleavage)
[41] = molecular target: T2, Muscarinic acetylcholine receptor M3; test: GPCRScan assay: inhibition of M3; design: radioligand conc. used [nm] 0.3 – 1.0, parental cells stable CHO
Target sequence in this assay (P20309 whole entry): as the sequence (P20309 whole entry, looked up) above

Tryptase (Homo sapiens) = Tryptase (Homo sapiens) (UniProt Q9BZJ3+Q15661+Q9NRR2); test: Tryptase Serine protease panel; settings: Compound concentration 10.0 uM
[42] = molecular target: Neutrophil elastase (Homo sapiens) (UniProt P08246); test: Elastase Serine protease panel; settings: Compound concentration 10.0 uM
[43] = molecular target: Plasminogen (Homo sapiens) (UniProt P00747); test: Plasmin Serine protease panel; settings: Compound concentration 10.0 uM
[44] = molecular target: Chymotrypsin (Homo sapiens) (UniProt Q99895+P17538+P40313+Q6GPI1); test: Chymotrypsin Serine protease panel; type: protein assay; settings: Compound concentration 10.0 uM
[45] = molecular target: Tissue-type plasminogen activator (Homo sapiens) (UniProt P00750); test: TPA Serine protease panel; settings: Compound concentration 10.0 uM
[46] = molecular target: Kallikrein-1 (Homo sapiens) (UniProt P06870); test: Kallikrein Serine protease panel; settings: Compound concentration 10.0 uM
[47] = molecular target: Prothrombin (Homo sapiens) (UniProt P00734); test: Thrombin Serine protease panel; settings: Compound concentration 10.0 uM
Chymase (Homo sapiens) = Chymase (Homo sapiens) (UniProt P23946); test: Chymase Serine protease panel; settings: Compound concentration 10.0 uM
[48] = molecular target: Cathepsin G (Homo sapiens) (UniProt P08311); test: Cathepsin G Serine protease panel; settings: Compound concentration 10.0 uM
[49] = molecular target: Myeloblastin (Homo sapiens) (UniProt P24158); test: Proteinase 3 Serine protease panel; settings: Compound concentration 10.0 uM
[50] = molecular target: Coagulation factor VII (Homo sapiens) (UniProt P08709); test: Factor VIIa Serine protease panel; settings: Compound concentration 10.0 uM
[51] = molecular target: Urokinase-type plasminogen activator (Homo sapiens) (UniProt P00749); test: Urokinase Serine protease panel; settings: Compound concentration 10.0 uM
Homo sapiens = species: Homo sapiens; test: Streptokinase Serine protease panel; settings: Compound concentration 10.0 uM
[52] = molecular target: Serine protease 1 (Homo sapiens) (UniProt P07477); test: Trypsin Serine protease panel; settings: Compound concentration 10.0 uM
[53] = molecular target: Coagulation factor X (Homo sapiens) (UniProt P00742); test: Factor Xa Serine protease panel; settings: concentration not given here
[54] = molecular target: Monoacylglycerol lipase ABHD6 (Homo sapiens, UniProt Q9BV23); test: hABHD6 Endocannabinoid related and lipase panel
[55] = molecular target: Lysophosphatidylserine lipase ABHD12 (Homo sapiens, UniProt Q8N2K0); test: hABHD12 Endocannabinoid related and lipase panel
Endothelial lipase = Endothelial lipase (Homo sapiens, UniProt Q9Y5X9); test: Endothelial lipase Endocannabinoid related and lipase panel
[56] = molecular target: Hepatic triacylglycerol lipase (Homo sapiens, UniProt P11150); test: Hepatic lipase Endocannabinoid related and lipase panel
Lipoprotein lipase = Lipoprotein lipase (Homo sapiens, UniProt P06858); test: Lipoprotein lipase Endocannabinoid related and lipase panel
D(1B) dopamine receptor [57] = molecular target: T1, D(1B) dopamine receptor; settings: Compound concentration 10.0 uM
[58] = molecular target: Muscarinic acetylcholine receptor M4 (Homo sapiens) (UniProt P08173); settings: Compound concentration 10.0 uM

Sigma non-opioid intracellular receptor 1 (Homo sapiens), sequence (Q99720 whole entry): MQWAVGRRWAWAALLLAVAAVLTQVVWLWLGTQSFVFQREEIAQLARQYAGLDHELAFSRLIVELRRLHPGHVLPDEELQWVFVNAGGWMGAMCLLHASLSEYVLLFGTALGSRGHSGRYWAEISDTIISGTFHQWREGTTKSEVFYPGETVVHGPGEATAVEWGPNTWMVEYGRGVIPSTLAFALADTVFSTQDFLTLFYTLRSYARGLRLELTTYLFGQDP
Muscarinic acetylcholine receptor M5 (Homo sapiens), sequence (P08912 whole entry): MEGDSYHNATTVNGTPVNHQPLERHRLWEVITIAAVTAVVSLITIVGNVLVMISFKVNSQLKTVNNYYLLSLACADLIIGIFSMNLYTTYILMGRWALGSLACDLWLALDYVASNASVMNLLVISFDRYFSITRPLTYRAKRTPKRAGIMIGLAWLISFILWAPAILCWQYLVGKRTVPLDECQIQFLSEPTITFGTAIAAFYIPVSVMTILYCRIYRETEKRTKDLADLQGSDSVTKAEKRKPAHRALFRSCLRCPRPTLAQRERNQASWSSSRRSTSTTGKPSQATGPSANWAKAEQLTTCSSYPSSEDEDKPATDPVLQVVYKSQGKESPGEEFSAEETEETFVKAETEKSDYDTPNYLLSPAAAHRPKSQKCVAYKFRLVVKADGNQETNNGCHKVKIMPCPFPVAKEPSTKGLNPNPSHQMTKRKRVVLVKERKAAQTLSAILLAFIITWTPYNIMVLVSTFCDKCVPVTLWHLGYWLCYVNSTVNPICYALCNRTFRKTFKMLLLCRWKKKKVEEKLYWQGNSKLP
Beta-3 adrenergic receptor (Homo sapiens), sequence (P13945 whole entry, looked up): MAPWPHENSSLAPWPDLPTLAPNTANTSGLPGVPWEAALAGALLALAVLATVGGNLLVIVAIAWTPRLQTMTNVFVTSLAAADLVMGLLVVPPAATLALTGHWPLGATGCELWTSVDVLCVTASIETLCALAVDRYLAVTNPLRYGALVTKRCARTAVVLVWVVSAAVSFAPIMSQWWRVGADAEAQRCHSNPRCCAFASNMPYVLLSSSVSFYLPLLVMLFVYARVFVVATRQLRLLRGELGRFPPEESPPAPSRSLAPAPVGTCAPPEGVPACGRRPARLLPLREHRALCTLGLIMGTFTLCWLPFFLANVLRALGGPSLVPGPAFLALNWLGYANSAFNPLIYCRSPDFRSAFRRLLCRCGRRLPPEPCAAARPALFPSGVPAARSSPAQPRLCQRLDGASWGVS
5-hydroxytryptamine receptor 1D (Homo sapiens), sequence (P28221 whole entry): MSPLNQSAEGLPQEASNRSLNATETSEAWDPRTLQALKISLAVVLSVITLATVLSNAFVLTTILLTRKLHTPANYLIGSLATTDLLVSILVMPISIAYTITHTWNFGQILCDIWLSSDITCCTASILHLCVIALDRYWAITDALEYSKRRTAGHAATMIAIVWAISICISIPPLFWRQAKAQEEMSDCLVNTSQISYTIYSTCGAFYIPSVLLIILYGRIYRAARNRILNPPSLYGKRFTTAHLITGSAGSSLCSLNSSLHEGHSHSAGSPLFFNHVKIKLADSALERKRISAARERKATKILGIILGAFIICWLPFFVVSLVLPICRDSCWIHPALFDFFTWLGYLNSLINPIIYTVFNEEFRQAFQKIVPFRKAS
Alpha-1B adrenergic receptor (Homo sapiens), sequence (P35368 whole entry): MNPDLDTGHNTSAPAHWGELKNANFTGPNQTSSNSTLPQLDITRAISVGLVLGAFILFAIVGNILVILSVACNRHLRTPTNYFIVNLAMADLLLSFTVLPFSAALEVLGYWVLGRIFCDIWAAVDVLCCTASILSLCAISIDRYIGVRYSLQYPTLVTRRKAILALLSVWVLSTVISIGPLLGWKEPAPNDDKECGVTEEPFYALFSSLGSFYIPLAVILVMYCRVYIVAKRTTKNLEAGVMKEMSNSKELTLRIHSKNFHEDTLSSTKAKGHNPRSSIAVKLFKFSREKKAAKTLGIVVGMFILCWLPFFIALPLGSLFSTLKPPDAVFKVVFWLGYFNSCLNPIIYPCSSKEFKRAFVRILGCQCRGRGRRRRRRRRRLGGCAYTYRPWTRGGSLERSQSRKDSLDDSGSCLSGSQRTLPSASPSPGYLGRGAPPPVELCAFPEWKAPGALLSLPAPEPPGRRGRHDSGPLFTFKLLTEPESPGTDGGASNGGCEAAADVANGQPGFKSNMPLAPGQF
5-hydroxytryptamine receptor 3A (Homo sapiens), sequence (P46098 whole entry): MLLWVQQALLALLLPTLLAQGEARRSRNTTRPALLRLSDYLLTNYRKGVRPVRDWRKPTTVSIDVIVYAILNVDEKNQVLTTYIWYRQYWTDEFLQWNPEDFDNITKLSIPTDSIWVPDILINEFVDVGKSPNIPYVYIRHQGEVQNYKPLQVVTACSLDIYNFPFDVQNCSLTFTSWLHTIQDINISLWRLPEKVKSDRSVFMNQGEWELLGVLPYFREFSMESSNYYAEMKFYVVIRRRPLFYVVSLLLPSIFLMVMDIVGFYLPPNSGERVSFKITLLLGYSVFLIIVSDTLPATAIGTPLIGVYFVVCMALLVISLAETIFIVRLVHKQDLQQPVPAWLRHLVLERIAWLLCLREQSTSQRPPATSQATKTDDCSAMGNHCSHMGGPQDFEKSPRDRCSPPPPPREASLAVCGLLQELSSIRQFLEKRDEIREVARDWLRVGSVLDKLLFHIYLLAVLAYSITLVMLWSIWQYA
Beta-1 adrenergic receptor (Homo sapiens), sequence (P08588 whole entry, looked up): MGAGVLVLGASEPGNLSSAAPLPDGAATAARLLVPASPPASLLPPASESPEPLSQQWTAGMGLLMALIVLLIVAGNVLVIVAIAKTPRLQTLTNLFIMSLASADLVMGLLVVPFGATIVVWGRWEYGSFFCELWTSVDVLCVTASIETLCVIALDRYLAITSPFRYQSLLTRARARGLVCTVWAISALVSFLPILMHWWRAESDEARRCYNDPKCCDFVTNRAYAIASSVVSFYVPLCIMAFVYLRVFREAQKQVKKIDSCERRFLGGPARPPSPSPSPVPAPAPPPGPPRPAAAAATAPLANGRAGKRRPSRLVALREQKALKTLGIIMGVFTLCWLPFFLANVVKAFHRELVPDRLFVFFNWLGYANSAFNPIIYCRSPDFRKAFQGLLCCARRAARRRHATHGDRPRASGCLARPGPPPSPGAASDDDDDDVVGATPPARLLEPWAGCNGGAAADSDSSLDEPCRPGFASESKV
Histamine H3 receptor (Homo sapiens), sequence (Q9Y5N1 whole entry): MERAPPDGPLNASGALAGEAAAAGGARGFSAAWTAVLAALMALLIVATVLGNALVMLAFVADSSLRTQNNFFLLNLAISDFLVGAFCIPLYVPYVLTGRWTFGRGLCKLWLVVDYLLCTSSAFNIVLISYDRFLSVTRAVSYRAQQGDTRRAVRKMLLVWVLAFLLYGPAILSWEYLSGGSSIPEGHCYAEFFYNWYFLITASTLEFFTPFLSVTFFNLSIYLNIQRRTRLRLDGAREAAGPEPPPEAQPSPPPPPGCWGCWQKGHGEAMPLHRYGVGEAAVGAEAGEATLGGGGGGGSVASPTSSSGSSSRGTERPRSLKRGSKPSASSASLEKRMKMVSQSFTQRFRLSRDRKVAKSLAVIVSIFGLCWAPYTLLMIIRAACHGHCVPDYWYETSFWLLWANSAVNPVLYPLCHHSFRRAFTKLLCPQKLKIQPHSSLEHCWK
Alpha-2B adrenergic receptor (Homo sapiens), sequence (P18089 whole entry): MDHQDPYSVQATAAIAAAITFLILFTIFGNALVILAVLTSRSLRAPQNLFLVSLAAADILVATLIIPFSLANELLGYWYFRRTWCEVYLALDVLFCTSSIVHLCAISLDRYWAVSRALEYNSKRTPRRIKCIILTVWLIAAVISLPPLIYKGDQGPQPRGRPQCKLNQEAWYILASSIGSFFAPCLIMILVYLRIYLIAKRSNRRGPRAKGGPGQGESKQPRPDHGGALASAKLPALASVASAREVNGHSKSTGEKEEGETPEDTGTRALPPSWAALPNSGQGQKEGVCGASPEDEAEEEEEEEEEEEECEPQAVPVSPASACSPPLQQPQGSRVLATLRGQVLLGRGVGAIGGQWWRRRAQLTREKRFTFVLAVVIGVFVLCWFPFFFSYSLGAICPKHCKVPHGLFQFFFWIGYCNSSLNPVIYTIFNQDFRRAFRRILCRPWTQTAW
Sigma intracellular receptor 2 (Homo sapiens), sequence (Q5BJF2 whole entry): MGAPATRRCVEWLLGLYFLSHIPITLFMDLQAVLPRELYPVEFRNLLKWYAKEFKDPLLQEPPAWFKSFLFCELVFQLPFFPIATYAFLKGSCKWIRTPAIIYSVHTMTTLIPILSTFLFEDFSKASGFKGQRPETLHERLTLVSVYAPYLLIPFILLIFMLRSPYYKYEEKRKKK

Cc1cc(C(=O)N2CCN(C3CN(C(=O)c4ccc(-c5ccccc5)cc4)C3)CC2)no1
inactive: inhibition [2] 18.1% | inhibition [3] 35% | inhibition [4] 22.7% | inhibition [5] 8.77% | inhibition [6] 8.86% | inhibition [7] 2.58% | inhibition [8] 9.93% | inhibition [9] 11.5% | inhibition [10] 17% | inhibition [11] 12.4% | inhibition [12] 8.15% | inhibition [13] 11.1% | inhibition [14] 16% | inhibition [15] 22.3% | inhibition [16] 3.51% | inhibition [17] 43.5% | inhibition [18] 49.1% | inhibition [19] 39% | inhibition [20] 24.2% | inhibition [21] 29.9% | inhibition [22] 32.4% | inhibition [23] 41.2% | inhibition [24] -7.89% | inhibition [25] -6.9% | inhibition [26] -7.67% | inhibition [27] 23.3% | inhibition [28] 23% | inhibition [29] 16.6% | inhibition [30] -6.07% | inhibition [31] 0.18% | inhibition [32] -3.68% | inhibition [33] 48.9% | inhibition [34] -4.46% | inhibition [35] 23.6% | inhibition [36] 36.5% | inhibition (Rattus norvegicus) 38% | inhibition [37] 10.4% | inhibition [38] 43.6% | inhibition [39] 37.1%
> 10 µM: Ki (D(1B) dopamine receptor [1])
< 5: pKi (D(1B) dopamine receptor [1])
> 10 µM (not active): IC50 [40]

O=C(c1ccc2c(ccn2-c2ccc(F)cc2)c1)N1CC(N2CCN(C(=O)c3nccs3)CC2)C1
2%: inhibition (Tryptase (Homo sapiens)) | inhibition [51]
-5%: inhibition [50]
6%: inhibition [45]
11%: inhibition (Chymase (Homo sapiens))
inactive: inhibition [2] 11.6% | inhibition [3] 6.33% | inhibition [4] 18.2% | inhibition [5] 7.06% | inhibition [6] 8.47% | inhibition [8] 19.3% | inhibition [9] 17.7% | inhibition [10] -9.24% | inhibition [11] 12.8% | inhibition [12] -9.71% | inhibition [13] 1.99% | inhibition [14] 0.01% | inhibition (D(1B) dopamine receptor [57]) -0.29% | inhibition [15] 8.15% | inhibition [16] 8.01% | inhibition [17] 25.2% | inhibition [18] 14.5% | inhibition [19] 9.83% | inhibition [20] 11.1% | inhibition [21] 4.93% | inhibition [22] 2.62% | inhibition [23] 19.4% | inhibition [24] -8.52% | inhibition [25] -2.02% | inhibition [26] -6.82% | inhibition [27] 14.2% | inhibition [28] 9.63% | inhibition [29] 4.03% | inhibition [30] -2.68% | inhibition [31] -2.21% | inhibition [32] -3.14% | inhibition [58] 1.62% | inhibition [34] -7.3% | inhibition [35] 0.7% | inhibition (Rattus norvegicus) -0.52% | inhibition [37] 9.02% | inhibition [38] 27.6% | inhibition [39] 27.6%
-1%: inhibition [47]
1%: inhibition (Homo sapiens)
-10%: inhibition [52]
active: inhibition [33] 54.7%
7%: inhibition [49]
13%: inhibition [48]
-3%: inhibition [44]
0%: inhibition [53]
< 5: pKi [41]
> 10 µM: Ki [41] | IC50 [54] | IC50 [55]
4%: inhibition [42] | inhibition [43] | inhibition [46]
> 30 µM: IC50 (Endothelial lipase) | IC50 [56] | IC50 (Lipoprotein lipase)
